Patent US7662364B2, “Drug for hyperphospheremia and its preparative method” (priority 2006, dated 2010)
Where two headings read alike, the source gives them in different places.

Details: for Removing phosphate %: 0.5 g in 100 ml, 37° C.
Experimental: Lanthanum carbonate 0.5 g was added to 0.85% NaCl solution 100 ml (pH 6.8) and 0.85% NaCl solution 100 ml (pH7.8), respectively. Then, sufficient quantities of Na2HPO4 were added to the two solutions, stirred at 37° C. Filtered solutions were obtained at 10 min, 30 min, 40 min and 60 min, respectively. Phosphate content was determined and the percentage of removing phosphate was computed.

With O=C([O-])[O-].O=C([O-])[O-].O=C([O-])[O-].[La+3].[La+3] [Lanthanum carbonate] the Removing phosphate % (0.85% NaCl pH 6.8, 10 min) was 6.7%, the Removing phosphate % (0.85% NaCl pH 6.8, 30 min) was 13.7% and the Removing phosphate % (0.85% NaCl pH 6.8, 40 min) was 16.9%. For the same molecule, the Removing phosphate % (0.85% NaCl pH 6.8, 60 min) was 20.8%, the Removing phosphate % (0.85% NaCl pH 7.8, 10 min) was 1.4% and the Removing phosphate % (0.85% NaCl pH 7.8, 30 min) was under 2.0%. For the same molecule, the Removing phosphate % (0.85% NaCl pH 7.8, 40 min) was under 2.0%, the Removing phosphate % (0.85% NaCl pH 7.8, 60 min) was under 2.0% and the “phosphate removal, result in words” value (solution whose PH was similar to that of human large intestine (pH 7.8)) was “unable to remove phosphate”. For the same molecule, the “phosphate removal, result in words” value (solution whose PH was similar to that of human small intestine (pH 6.8)) was “removed less phosphate”.
